Test results published in US11578343B2, “CAS9 proteins including ligand-dependent inteins” (President and Fellows of Harvard College, priority 2014, dated 2023).

Tests used:
Assay type in all cases: cell-based, human
[1] = tested on: HEK293-GFP stable cells; assay: Western blot analysis of intein splicing; settings: FIG. 6
Procedure: FIGS. 6A-6B. […] 12 h after transfection, cells were treated with or without 4-HT (1 μM). Cells were lysed and pooled from three technical replicates 4, 8, 12, or 24 h after 4-HT treatment. An anti-FLAG antibody (Sigma-Aldrich F1804) and an anti-mouse 800CW IRDye (LI-COR) were used to visualize the gel. Lanes 1 and 2 contain purified dCas9-VP64-3×FLAG protein and lysate from untransfected HEK293 cells, respectively.
Western blot analysis of intein splicing. HEK293-GFP stable cells were transfected with 500 ng Cas9 expression plasmid and 125 ng sgRNA expression plasmid. 12 h after transfection, the media was replaced with full serum media, with or without 4-HT (1 μM). Cells were lysed and pooled from three technical replicates 4, 8, 12, or 24 h after 4-HT treatment. Samples were run on a Bolt 4-12% Bis-Tris gel (Life Technologies). An anti-FLAG antibody (Sigma-Aldrich F1804) and an anti-mouse 800CW IRDye (LI-COR) were used to visualize the gel on an Odyssey IR imager.

[2] = tested on: VEGF Off 2; assay: High-throughput DNA sequencing of genome modifications; settings: 500 ng Cas9 plasmid; for Mod. Freq (indels/total sequences), VEGF Off 2: Table 4; for Mod Freq (indels/total sequences), VEGF Off 2: +4-HT, Table 6
Procedure: (§1) We assayed these Cas9:sgRNA combinations in human cells for their ability to modify the three on-target loci as well as 11 known off-target genomic sites (Table 3)^4,5,10,13. Cells were treated with or without 1 μM 4-HT during transfection, and after 12 h the media was replaced with fresh media lacking 4-HT. […] Genomic DNA was isolated 60 h post-transfection and analyzed by high-throughput DNA sequencing
(§2) High-throughput DNA sequencing of genome modifications. HEK293-GFP stable cells were transfected with plasmids expressing Cas9 (500 ng) and sgRNA (125 ng) as described above. […] 4-HT (1 μM final), where appropriate, was added during transfection. 12 h after transfection, the media was replaced with full serum media without 4-HT. Genomic DNA was isolated and pooled from three biological replicates 60 h after transfection using a previously reported^11 protocol with a DNAdvance Kit (Agencourt). 150 ng or 200 ng of genomic DNA was used as a template to amplify by PCR the on-target and off-target genomic sites with flanking HTS primer pairs described previously^11. PCR products were purified using RapidTips (Diffinity Genomics) and quantified using the PicoGreen dsDNA Assay Kit (Invitrogen). Purified DNA was PCR amplified with primers containing sequencing adaptors, purified with the MinElute PCR Purification Kit (Qiagen) and AMPure XP PCR Purification (Agencourt). Samples were sequenced on a MiSeq high-throughput DNA sequencer (Illumina), and sequencing data was analyzed as described previously^4.
(§3) Sensitivity limit of off-target cleavage assays. We used paired end sequencing to identify indels caused by genomic on- and off-target cleavage. […] A 1 ng sample of human gDNA represents only ˜330 unique genomes, and thus only ˜330 unique copies of each genomic site are present. PCR amplification for each genomic target was performed on a total of 150 ng or 200 ng of input gDNA, which provides amplicons derived from at most 50,000 or 65,000 unique gDNA copies, respectively. Therefore, the high-throughput sequencing assay cannot detect rare genome modification events that occur at a frequency of less than approximately 1 in 50,000 (0.002%). When comparing between two conditions, such as wt Cas9 vs. intein-Cas9, this threshold becomes approximately 10 in 50,000 (0.02%) when using the Fisher exact test and a conservative multiple comparison correction (Bonferroni with 14 samples). See also Minoche, A. E., Dohm, J. C., & Himmelbauer, H. Evaluation of genomic high-throughput sequencing data generated on Illumina HiSeq and Genome Analyzer systems. Genome Biology 12, R112 (2011).

[3] = tested on: VEGF Off 1; assay: as above; settings: 500 ng Cas9 plasmid; for Mod. Freq (indels/total sequences), VEGF Off 1: Table 4; for Mod Freq (indels/total sequences), VEGF Off 1: +4-HT, Table 6
Procedure: as §1, §2, §3

[4] = tested on: EMX Off 3; assay: as above; settings: 500 ng Cas9 plasmid; for Mod. Freq (indels/total sequences), EMX Off 3: Table 4; for Mod Freq (indels/total sequences), EMX Off 3: +4-HT, Table 6
Procedure: as §1, §2, §3

[5] = tested on: EMX Off 2; assay: as above; settings: 500 ng Cas9 plasmid; for Mod. Freq (indels/total sequences), EMX Off 2: Table 4; for Mod Freq (indels/total sequences), EMX Off 2: +4-HT, Table 6
Procedure: as §1, §2, §3

[6] = tested on: CLTA Off 1; assay: as above; settings: 500 ng Cas9 plasmid; for Mod. Freq (indels/total sequences), CLTA Off 1: Table 4; for Mod Freq (indels/total sequences), CLTA Off 1: +4-HT, Table 6
Procedure: as §1, §2, §3

[7] = tested on: VEGF Off 3; assay: as above; settings: 500 ng Cas9 plasmid; for Mod. Freq (indels/total sequences), VEGF Off 3: Table 4; for Mod Freq (indels/total sequences), VEGF Off 3: +4-HT, Table 6
Procedure: as §1, §2, §3

[8] = tested on: CLTA On; assay: as above; settings: 500 ng Cas9 plasmid; for Mod. Freq (indels/total sequences), CLTA On: Table 4; for Mod Freq (indels/total sequences), CLTA On: +4-HT, Table 6
Procedure: as §1, §2, §3

[9] = tested on: EMX Off 4; assay: as above; settings: 500 ng Cas9 plasmid; for Mod. Freq (indels/total sequences), EMX Off 4: Table 4; for Mod Freq (indels/total sequences), EMX Off 4: +4-HT, Table 6
Procedure: as §1, §2, §3

[10] = tested on: EMX On; assay: as above; settings: 500 ng Cas9 plasmid; for Mod. Freq (indels/total sequences), EMX On: Table 4; for Mod Freq (indels/total sequences), EMX On: +4-HT, Table 6
Procedure: as §1, §2, §3

| Substance | Mod. Freq (indels/total sequences), VEGF Off 2 ([2]; +4-HT (1 μM, 12 h)) [%] | Mod Freq (indels/total sequences), VEGF Off 2 [2] [%] | Mod. Freq (indels/total sequences), VEGF Off 2 ([2]; −4-HT) [%] | Mod. Freq (indels/total sequences), VEGF Off 1 ([3]; +4-HT (1 μM, 12 h)) [%] | Mod Freq (indels/total sequences), VEGF Off 1 [3] [%] | Mod. Freq (indels/total sequences), VEGF Off 1 ([3]; −4-HT) [%] | Mod. Freq (indels/total sequences), EMX Off 3 ([4]; +4-HT (1 μM, 12 h)) [%] | Mod Freq (indels/total sequences), EMX Off 3 [4] [%] | Mod. Freq (indels/total sequences), EMX Off 3 ([4]; −4-HT) [%] | Mod. Freq (indels/total sequences), EMX Off 2 ([5]; +4-HT (1 μM, 12 h)) [%] | Mod Freq (indels/total sequences), EMX Off 2 [5] [%] | Mod. Freq (indels/total sequences), EMX Off 2 ([5]; −4-HT) [%] | Mod. Freq (indels/total sequences), CLTA Off 1 ([6]; +4-HT (1 μM, 12 h)) [%] | Mod Freq (indels/total sequences), CLTA Off 1 [6] [%] | Mod. Freq (indels/total sequences), CLTA Off 1 ([6]; −4-HT) [%] | Mod. Freq (indels/total sequences), VEGF Off 3 ([7]; +4-HT (1 μM, 12 h)) [%] | Mod Freq (indels/total sequences), VEGF Off 3 [7] [%] | Mod. Freq (indels/total sequences), VEGF Off 3 ([7]; −4-HT) [%] | Mod. Freq (indels/total sequences), CLTA On ([8]; +4-HT (1 μM, 12 h)) [%] | Mod Freq (indels/total sequences), CLTA On [8] [%] | other results |
| --- | --- | --- | --- | --- | --- | --- | --- | --- | --- | --- | --- | --- | --- | --- | --- | --- | --- | --- | --- | --- | --- |
| intein(Ser219)-Cas9: Cas9 with 37R3-2 intein replacing Ser219 (SEQ ID NO: 30) | 1.49 | 0.90 | 0.08 | 8.50 | 4.61 | 0.43 | 0.77 | 0.54 | 0.05 | 0.04 | 0.04 | 0.02 | 0.36 | 0.23 | 0.01 | 0.37 | 0.16 | 0.04 | 14.48 | 9.13 | Spliced product (Western blot) ([1]; absence of 4-HT): no spliced product was detected; Spliced product (Western blot) ([1]; earliest assayed time point (4 h) following 4-HT treatment (1 μM)): presence of spliced product; Mod. Freq (indels/total sequences), CLTA On ([8]; −4-HT): 4.30%; Mod. Freq (indels/total sequences), EMX Off 4 ([9]; +4-HT (1 μM, 12 h)): 3.16%; Mod Freq (indels/total sequences), EMX Off 4 [9]: 2.18%; Mod. Freq (indels/total sequences), EMX Off 4 ([9]; −4-HT): 0.19%; Mod. Freq (indels/total sequences), EMX On ([10]; +4-HT (1 μM, 12 h)): 13.57%; Mod Freq (indels/total sequences), EMX On [10]: 8.25%; Mod. Freq (indels/total sequences), EMX On ([10]; −4-HT): 1.87% |
| intein(Cys574)-Cas9: Cas9 with 37R3-2 intein replacing Cys574 (SEQ ID NO: 33) | 0.77 | 0.38 | 0.05 | 4.68 | 3.18 | 0.29 | 0.29 | 0.25 | 0.02 | 0.04 | 0.02 | 0.01 | 0.04 | 0.03 | 0.01 | 0.19 | 0.07 | 0.01 | 7.65 | 6.35 | Mod. Freq (indels/total sequences), CLTA On ([8]; −4-HT): 1.81%; Mod. Freq (indels/total sequences), EMX Off 4 ([9]; +4-HT (1 μM, 12 h)): 1.13%; Mod Freq (indels/total sequences), EMX Off 4 [9]: 0.85%; Mod. Freq (indels/total sequences), EMX Off 4 ([9]; −4-HT): 0.09%; Mod. Freq (indels/total sequences), EMX On ([10]; +4-HT (1 μM, 12 h)): 9.47%; Mod Freq (indels/total sequences), EMX On ([10]; listed as intein-Cas9 (C574)): 6.42%; Mod Freq (indels/total sequences), EMX On ([10]; listed as intein-Cas9(C574)): 6.4%; Mod. Freq (indels/total sequences), EMX On ([10]; −4-HT): 0.99% |
